Reference: patent US9527842B2, “Inhibitors of human immunodeficiency virus replication” (priority 2013, dated 2016)
Where two headings read alike, the source gives them in different places.

Assays:
[1] = rcm bond, Hoveyda-Grubbs II, DCE
[2] = rcm bond, Hoveyda-Grubbs II, then NaOH, DCE

`COC(=O)[C@@H](OC(C)(C)C)c1c(C)cn2nc3cc2c1N1CCC(C)(CC1)OCC=CC[C@H](C)Oc1ccc(C#N)cc1-c1cccc-3c1` showed a ring closure, isolated yield ([1]; from C=CCOC1(C)CCN(c2c([C@H](OC(C)(C)C)C(=O)OC)c(C)cn3nc(-c4cccc(-c5cc(C#N)ccc5O[C@@H](C)CC=C)c4)cc23)CC1, 20-membered ring, 1.51 mM, 85.0 °C, 2.0 h) of 82%.

For `COC(=O)[C@@H](OC(C)(C)C)c1c(C)cn2nc3cc2c1N1CCC(C)(CC1)OCC=CCOc1ccccc1CC(O)CNC3=O` (stereo partly shown), the ring closure, isolated yield ([1]; from C=CCOc1ccccc1CC(O)CNC(=O)c1cc2c(N3CCC(C)(OCC=C)CC3)c([C@H](OC(C)(C)C)C(=O)OC)c(C)cn2n1, 21-membered ring, 1.81 mM, 70.0 °C, 3.0 h) was 58%.

Molecule `COC(=O)[C@@H](OC(C)(C)C)c1c(C)cn2nc3cc2c1N1CCC(C)(CC1)OCC=CC[C@H](C)Oc1ccc(F)cc1-c1cccc-3c1` has a ring closure, yield after HPLC ([2]; from C=CCOC1(C)CCN(c2c([C@H](OC(C)(C)C)C(=O)OC)c(C)cn3nc(-c4cccc(-c5cc(F)ccc5O[C@@H](C)CC=C)c4)cc23)CC1, 20-membered ring, then H2, Pd/C, 2.02 mM, 85.0 °C, 2.0 h, 3 steps) of 23.2%.

Work on `COC(=O)[C@@H](OC(C)(C)C)c1c(C)cn2nc3cc2c1N1CCC(C)(CCC=CCOc2cc(F)ccc2CNC3=O)CC1` yielded a ring closure, yield after HPLC ([2]; from C=CCCC1(C)CCN(c2c([C@H](OC(C)(C)C)C(=O)OC)c(C)cn3nc(C(=O)NCc4ccc(F)cc4OCC=C)cc23)CC1, 19-membered ring, 1.57 mM, 70.0 °C, 2.0 h, 2 steps) of 53.5%.

For `COC(=O)[C@@H](OC(C)(C)C)c1c(C)cn2nc3cc2c1N1CCC(C)(CC1)OCC=CC[C@H](C)Oc1ccc(C)c(F)c1-c1cccc-3c1`, the ring closure, yield after HPLC ([2]; from C=CCOC1(C)CCN(c2c([C@H](OC(C)(C)C)C(=O)OC)c(C)cn3nc(-c4cccc(-c5c(O[C@@H](C)CC=C)ccc(C)c5F)c4)cc23)CC1, 20-membered ring, then H2, Pd/C, 2.0 mM, 80.0 °C, 4.0 h, 3 steps) was 11%.

`COC(=O)[C@@H](OC(C)(C)C)c1c(C)cn2nc3cc2c1N1CCC(C)(CC1)OCC=CCC[C@H](C)Oc1ccc(C)cc1-c1cccc-3c1` showed a ring closure, yield after HPLC ([2]; from C=CCC[C@H](C)Oc1ccc(C)cc1-c1cccc(-c2cc3c(N4CCC(C)(OCC=C)CC4)c([C@H](OC(C)(C)C)C(=O)OC)c(C)cn3n2)c1, 21-membered ring, then H2, Pd/C, 1.86 mM, 85.0 °C, 3.0 h, 3 steps) of 40.6%.

`COC(=O)[C@@H](OC(C)(C)C)c1c(C)cn2nc3cc2c1N1CCC(C)(CC1)OCC=CC(C)COc1ccc(C)cc1-c1cccc-3c1` (stereo partly shown) showed a ring closure, isolated yield ([1]; from C=CCOC1(C)CCN(c2c([C@H](OC(C)(C)C)C(=O)OC)c(C)cn3nc(-c4cccc(-c5cc(C)ccc5OCC(C)C=C)c4)cc23)CC1, 20-membered ring, 2.13 mM, 85.0 °C, 2.0 h) of 82%.
